As a reminder, the EC50 is the midpoint of the concentration-response curve. As a reminder, the CC50 is the concentration that lowers cell viability or growth by half.

These results are taken from patent publication US9884818B2, “Sulphamoylpyrrolamide derivatives and the use thereof as medicaments for the treatment of hepatitis B” (Janssen Sciences Ireland UC, priority 2013, dated 2018).

In data set [1] the test system is HBV. Briefly: Anti-HBV activity, HepG2.117 inducibly HBV producing cell line (Tet-off), intracellular HBV DNA by realtime PCR. The note with it: Hepatitis B virus, HepG2.117, 72 h, HepG2.117 cells, 3 days of treatment, intracellular HBV DNA; read-out: HepG2 117 EC50. The data set is classed as cell-based.
The nature of data set [2]: Cytotoxicity in HepG2 cells, Resazurin viability assay. Conditions: human, HepG2 cells, HepG2 4 days CC50 (μM), incubated for 4 days, Resazurin assay. A general note: Resazurin is reduced to fluorescent resorufin, in cell work by metabolically active cells.
Data set [3] concerns HBV. The data set can be described thus: Anti-HBV activity, HepG2.2.15 stable transfected cell line, HBV DNA from secreted virions by realtime PCR. The data set is classed as cell-based. Conditions: HepG2.2.15 cells, 6 days of treatment, HBV DNA from secreted virions, read-out: HepG2 2.15 EC50.
The mark [4] stands for this setting: Hepatitis B virus, HepG2.2.15, 144 h.

On to `Cn1cc(S(=O)(=O)NC2CCCC2(F)F)cc1C(=O)Nc1ccc(F)c(Cl)c1F` (single isomer, unassigned) [Compound 236a, N-(3-Chloro-2,4-difluorophenyl)-4-{[2,2-difluorocyclopentyl]sulfamoyl}-1-methyl-1H-pyrrole-2-carboxamide], for which the 50% effective concentration (EC50) with HBV [1] was 50 nM; with HBV [3], 20 nM. This compound also gave a CC50 at 4 days in data set [2] above 25 µM.

On to `Cn1cc(S(=O)(=O)NC(C)(C)C)cc1C(=O)Nc1ccc(F)c(C(C)(F)F)c1` [Compound 162, 4-(tert-Butylsulfamoyl)-N-[3-(1,1-difluoroethyl)-4-fluorophenyl]-1-methyl-1H-pyrrole-2-carboxamide], for which the concentration giving a half-maximal response (EC50) with HBV [1] was 890 nM; with HBV [3] (setting [4]) it was above 1000 nM. The CC50 at 4 days in data set [2] is above 25 µM.

As for `[2H]C([2H])([2H])C(NS(=O)(=O)c1cc(C(=O)Nc2ccc(F)c(C)c2)n(C)c1)(C([2H])([2H])[2H])C([2H])([2H])[2H]` [Compound 69, N-(4-fluoro-3-methyl-phenyl)-1-methyl-4-[[2,2,2-trideuterio-1,1-bis(trideuteriomethyl)ethyl]sulfamoyl]pyrrole-2-carboxamide], the figures for the 50% effective concentration (EC50) with HBV [1] and with HBV [3] (setting [4]) were 70 nM and 30 nM, respectively. This compound also displayed a 50% cytotoxic concentration (CC50) at 4 days in data set [2] above 25 µM.

As for `Cc1c(F)ccc(NC(=O)c2cc(S(=O)(=O)NC3(C)COC3)cn2C)c1F` [Compound 85, N-(2,4-Difluoro-3-methylphenyl)-1-methyl-4-[(3-methyloxetan-3-yl)sulfamoyl]-1H-pyrrole-2-carboxamide], the 50% effective concentration (EC50) is 50 nM in the data set with HBV [1] and 30 nM in the data set with HBV [3] (setting [4]). The compound also came in with a CC50 at 4 days in data set [2] above 25 µM.

Turning to `Cc1c(S(=O)(=O)N[C@H](C)C(F)(F)F)cn(C)c1C(=O)Nc1ccc(F)c(Cl)c1F` [Compound 210, N-(3-Chloro-2,4-difluorophenyl)-1,3-dimethyl-4-{[(1R)-2,2,2-trifluoro-1-methylethyl]sulfamoyl}-1H-pyrrole-2-carboxamide], the EC50 in the data set on HBV [1] and in the data set with HBV [3] (setting [4]) was 50 nM in each case. The same compound yielded a cytotoxic concentration (CC50) at 4 days in data set [2] above 25 µM.

For `Cn1cc(S(=O)(=O)NC2(C(F)(F)F)CC2)c(Cl)c1C(=O)Nc1ccc(F)c(C#N)c1` [Compound 271, 3-Chloro-N-(3-cyano-4-fluorophenyl)-1-methyl-4-{[1-(trifluoro-methyl)cyclopropyl]sulfamoyl}-1H-pyrrole-2-carboxamide], the EC50 was found to be 20 nM in the data set on HBV [1] and 9 nM with HBV [3] (setting [4]). Further, the 50% cytotoxic concentration (CC50) at 4 days in data set [2] is above 25 µM.

As to `Cn1cc(S(=O)(=O)NC(C)(C)C)c(Cl)c1C(=O)Nc1ccc(F)c(F)c1` [Compound 223, 4-(tert-Butylsulfamoyl)-3-chloro-N-(3,4-difluorophenyl)-1-methyl-1H-pyrrole-2-carboxamide], the figures for the EC50 in the data set with HBV [1] and with HBV [3] (setting [4]) were 90 nM and 120 nM, respectively. In addition, the CC50 at 4 days in data set [2] was above 25 µM.

Regarding `Cn1cc(S(=O)(=O)NC(C)(C)CF)cc1C(=O)Nc1ccc(F)c(C#N)c1` [Compound 249, N-(3-cyano-4-fluoro-phenyl)-4-[(2-fluoro-1,1-dimethyl-ethyl)sulfamoyl]-1-methyl-1H-pyrrole-2-carboxamide], the values for the EC50 in the data set on HBV [1] and with HBV [3] (setting [4]) were 180 nM and 70 nM, respectively. Besides, in data set [2], the CC50 at 4 days was found to be 1.7 µM.

In the case of `Cn1cc(S(=O)(=O)NCC(F)(F)F)cc1C(=O)Nc1ccc(F)c(Cl)c1` [Compound 131, N-(3-Chloro-4-fluorophenyl)-1-methyl-4-[(2,2,2-trifluoroethyl)sulfamoyl]-1H-pyrrole-2-carboxamide], the EC50 in the data set on HBV [1] and in the data set with HBV [3] (setting [4]) was 10 nM each time. This compound registered a half-maximal cytotoxic concentration (CC50) at 4 days in data set [2] above 25 µM.

As to `Cc1c(F)ccc(NC(=O)c2cc(S(=O)(=O)N[C@@H](C)C(F)(F)F)cn2C)c1F` [Compound 119, N-(2,4-Difluoro-3-methylphenyl)-1-methyl-4-{[(1S)-2,2,2-trifluoro-1-methylethyl]sulfamoyl}-1H-pyrrole-2-carboxamide], the values for the EC50 in the data set on HBV [1] and in the data set with HBV [3] (setting [4]) were 10 nM and 30 nM, respectively. This compound also registered a CC50 at 4 days in data set [2] above 25 µM.

For `Cc1cc(NC(=O)c2cc(S(=O)(=O)NC(C)(C)C)cn2C)cc(F)c1F` [Compound 38, 4-(tert-butylsulfamoyl)-N-(3,4-difluoro-5-methyl-phenyl)-1-methyl-pyrrole-2-carboxamide], the EC50 with HBV [1] is 20 nM; in the data set with HBV [3] (setting [4]), 50 nM. Besides, the cytotoxic concentration (CC50) at 4 days in data set [2] was above 25 µM.

Regarding `C[C@H](CO)NS(=O)(=O)c1cc(C(=O)Nc2ccc(F)c(C(F)F)c2)n(C)c1` [Compound 40, N-[3-(difluoromethyl)-4-fluoro-phenyl]-4-[[(1R)-2-hydroxy-1-methyl-ethyl]sulfamoyl]-1-methyl-pyrrole-2-carboxamide], the results for the concentration for a half-maximal effect (EC50) with HBV [1] and in the data set with HBV [3] (setting [4]) were 120 nM and 200 nM, respectively. In data set [2], this compound showed a half-maximal cytotoxic concentration (CC50) at 4 days above 25 µM.

With `Cn1cc(S(=O)(=O)NC2(C)COC2)c(F)c1C(=O)Nc1ccc(F)c(F)c1` [Compound 74, N-(3,4-difluorophenyl)-3-fluoro-1-methyl-4-[(3-methyloxetan-3-yl)-sulfamoyl]pyrrole-2-carboxamide], the concentration giving a half-maximal response (EC50) with HBV [1] and with HBV [3] (setting [4]) was 20 nM throughout. In addition, the 50% cytotoxic concentration (CC50) at 4 days in data set [2] is above 25 µM.

In the case of `Cn1cc(S(=O)(=O)NC(C)(C)C)cc1C(=O)Nc1cccc(C#N)c1F` [Compound 192, 4-(tert-Butylsulfamoyl)-N-(3-cyano-2-fluorophenyl)-1-methyl-1H-pyrrole-2-carboxamide], the concentration giving a half-maximal response (EC50) was 190 nM in the data set on HBV [1] and 570 nM in the data set on HBV [3] (setting [4]). The compound further yielded a CC50 at 4 days in data set [2] above 25 µM.

Consider `C[C@@H](NS(=O)(=O)c1c(F)c(C(=O)Nc2ccc(F)c(C#N)c2)n(C)c1C#N)C(F)(F)F` [Compound 310, 5-cyano-N-(3-cyano-4-fluoro-phenyl)-3-fluoro-1-methyl-4-[[(1R)-2,2,2-trifluoro-1-methyl-ethyl]sulfamoyl]pyrrole-2-carboxamide], for which the figures for the EC50 with HBV [1] and with HBV [3] (setting [4]) were 160 nM and 70 nM, respectively. The 50% cytotoxic concentration (CC50) at 4 days in data set [2] was above 25 µM.

On to `CC[C@@H](C)NS(=O)(=O)c1cc(C(=O)Nc2cc(F)c(F)c(Br)c2)n(C)c1` [Compound 47, N-(3-bromo-4,5-difluoro-phenyl)-1-methyl-4-[[(1R)-1-methylpropyl]-sulfamoyl]pyrrole-2-carboxamide], for which the concentration giving a half-maximal response (EC50) in the data set on HBV [1] and with HBV [3] (setting [4]) was 100 nM throughout. The compound further yielded a CC50 at 4 days in data set [2] above 25 µM.

On to `C[C@@H](NS(=O)(=O)c1cn(C2CC2)c(C(=O)Nc2ccc(F)c(C#N)c2)c1Cl)C(F)(F)F` [Compound 305, 3-chloro-N-(3-cyano-4-fluoro-phenyl)-1-cyclopropyl-4-[[(1R)-2,2,2-trifluoro-1-methyl-ethyl]sulfamoyl]pyrrole-2-carboxamide], for which the EC50 worked out at 350 nM with HBV [1] and 170 nM with HBV [3] (setting [4]). Further, the CC50 at 4 days in data set [2] was above 25 µM.

On to `Cn1cc(S(=O)(=O)NC2(C(F)(F)F)CCOC2)cc1C(=O)Nc1ccc(F)c(Cl)c1F` (stereo not drawn) [Compound 266, N-(3-chloro-2,4-difluoro-phenyl)-1-methyl-4-{[3-(trifluoromethyl)-tetrahydrofuran-3-yl]sulfamoyl}-1H-pyrrole-2-carboxamide], for which the concentration giving a half-maximal response (EC50) is 30 nM in the data set with HBV [1] and 20 nM with HBV [3] (setting [4]). Besides, the CC50 at 4 days in data set [2] is above 25 µM.

As for `C[C@H](NS(=O)(=O)c1cc(C(=O)Nc2ccc(F)c(C#N)c2)n(C)c1)C(C)(F)F` [Compound 297, N-(3-cyano-4-fluoro-phenyl)-4-[[(1S)-2,2-difluoro-1-methyl-propyl]sulfamoyl]-1-methyl-pyrrole-2-carboxamide], the EC50 in the data set on HBV [1] amounted to 90 nM; in the data set on HBV [3] (setting [4]), 40 nM. Further, the cytotoxic concentration (CC50) at 4 days in data set [2] is 22.6 µM.

On to `Cc1cc(NC(=O)c2cc(S(=O)(=O)N[C@H](C)C(F)(F)F)cn2C)ccc1F` [Compound 9, N-(4-fluoro-3-methyl-phenyl)-1-methyl-4-[[(1R)-2,2,2-trifluoro-1-methyl-ethyl]sulfamoyl]pyrrole-2-carboxamide], for which the EC50 with HBV [1] came out at 30 nM; with HBV [3] (setting [4]), 10 nM. In data set [2], the CC50 at 4 days was above 25 µM.

Turning to `Cc1c(S(=O)(=O)N[C@@H](C)C(F)(F)F)cn(C)c1C(=O)Nc1ccc(F)c(Cl)c1F` [Compound 209, N-(3-Chloro-2,4-difluorophenyl)-1,3-dimethyl-4-{[(1S)-2,2,2-trifluoro-1-methylethyl]sulfamoyl}-1H-pyrrole-2-carboxamide], the EC50 in the data set on HBV [1] and in the data set with HBV [3] (setting [4]) was 90 nM in each case. The same compound had a 50% cytotoxic concentration (CC50) at 4 days in data set [2] above 25 µM.

Consider `Cn1cc(S(=O)(=O)NC2(C)COC2)c(F)c1C(=O)Nc1ccc(F)c(Br)c1` [Compound 106, N-(3-Bromo-4-fluorophenyl)-3-fluoro-1-methyl-4-[(3-methyloxetan-3-yl)sulfamoyl]-1H-pyrrole-2-carboxamide], for which the EC50 in the data set with HBV [1] and in the data set on HBV [3] (setting [4]) was 10 nM in each case. This compound gave a CC50 at 4 days in data set [2] above 25 µM.

Turning to `Cn1cc(S(=O)(=O)NC2CC(F)(F)C2)cc1C(=O)Nc1cc(F)c(F)c(Cl)c1` [Compound 164, N-(3-Chloro-4,5-difluorophenyl)-4-[(3,3-difluorocyclobutyl)sulfamoyl]-1-methyl-1H-pyrrole-2-carboxamide], the 50% effective concentration (EC50) with HBV [1] and in the data set on HBV [3] (setting [4]) was 130 nM in each case. The same compound had a CC50 at 4 days in data set [2] above 25 µM.

On to `Cc1cc(NC(=O)c2cc(S(=O)(=O)N[C@H]3CCOC3)cn2C)cc(F)c1F` [Compound 37, N-(3,4-difluoro-5-methyl-phenyl)-1-methyl-4-[[(3S)-tetrahydrofuran-3-yl]-sulfamoyl]pyrrole-2-carboxamide], for which the EC50 was 380 nM with HBV [1] and 730 nM in the data set with HBV [3] (setting [4]). The compound also returned a CC50 at 4 days in data set [2] above 25 µM.

For `C[C@H](NS(=O)(=O)c1cc(C(=O)Nc2ccc(F)c(Br)c2)n(C)c1)C(F)(F)F` [Compound 101, N-(3-Bromo-4-fluorophenyl)-1-methyl-4-{[(1S)-2,2,2-trifluoro-1-methylethyl]sulfamoyl}-1H-pyrrole-2-carboxamide], the EC50 in the data set with HBV [1] and in the data set with HBV [3] (setting [4]) was 30 nM throughout. In data set [2], this compound returned a CC50 at 4 days above 25 µM.
